Experimental data as given in patent US7645903B2, “Use of urea variants as affinity ligands” (GE Healthcare Bio-Sciences AB, priority 2002, dated 2010).
Structures can show the parent of a compound that is named as a salt.

Tested on: human Fab of κ-type
Assay: STD-NMR binding test (saturation transfer difference NMR screening)
Design: key to NMR signal, conc 1 / NMR signal, conc 2 / NMR signal, conc 3 / NMR signal, Conc 1 (directed library) / NMR signal, Conc 2 (directed library): 0 no; 1 weak; 2 strong signal
Settings: for NMR signal, conc 1: 500 nM protein; for NMR signal, conc 1 / NMR signal, conc 2: 0.5 mM ligand; for NMR signal, conc 2: 100 nM protein; for NMR signal, Conc 2 (directed library): 100 nM antibody; for NMR signal, Conc 1 (directed library): 500 nM antibody; for interaction with the antibody in NMR screening of directed library: two higher antibody concentrations
Method: All NMR experiments were performed at 298 K on a Bruker Avance 500 MHz spectrometer. The 1D saturation transfer difference method (STD-NMR) was used as screening assay (Mayer M. and Meyer B. 1999. Characterisation of Ligand Binding by Saturation Transfer Difference NMR Spectroscopy. Angew. Chem., Int. Ed. 38: 1784-1788). […] The two spectra are recorded in the same experiment in an interleaved fashion. […] It has been shown that the method is capable of detecting ligands with dissociation constants between 10^−3 and 10^−8 M (Mayer M. and Meyer B. 1999. Characterisation of Ligand Binding by Saturation Transfer Difference NMR Spectroscopy. Angew. Chem, Int. Ed. 38: 1784-1788). The strength of the STD-NMR signal depends upon several factors including protein size, offset and duration of the on-resonance irradiation, the dissociation rate constant and the excess of ligand. The STD-NMR method is advantageous in that the detection limits can be tuned for binding by varying the protein concentration while keeping the ligand concentration constant. Under such conditions, at higher protein concentrations the weak to medium binders are detected, whereas at lower protein concentrations only medium binders are detected. For instance, it has been shown before for another enzyme system that both μM and mM binders were detected at a protein concentration of 35 μM whereas only μM binders were detected at protein concentrations of 1 μM and 100 nM (Peng J. W., Lepre C. A., Fejzo J., Abdul-Manan N. and Moore J. M. 2001, Nuclear Magnetic Resonance-Based Approaches for Lead Generation in Drug Discovery, Methods in Enzymology. 338: 202-230). It should be noted that the signal intensity at one specific protein concentration should not be taken as a direct measure of the binding strength. […] On the other hand the signal of the μM binder became even stronger than before (Peng J. W., Lepre C. A., Fejzo J., Abdul-Manan N. and Moore J. M. 2001, Nuclear Magnetic Resonance-Based Approaches for Lead Generation in Drug Discovery, Methods in Enzymology. 338: 202-230).
Here, three different antibody concentrations were used, namely, 0.5 μM, 100 nM and 20 nM. The antibody used was a human Fab of κ-type. In all cases ligands were tested one-by-one. On-resonance irradiation was set at 0 ppm and off-resonance irradiation was set at 40 ppm. Irradiation time in each scan was 2 s and 16K data points were collected with 1024 scans in total. Compounds for testing were dissolved in DMSOd6 to a concentration of 50 mM and 5 μL of the concentrated ligand solution was added to 495 μL buffer solution. The samples thus consisted of 0.5 mM ligand, 20 mM phosphate buffer, 100 mM NaCl and […] in D2O at pD 7.5, uncorrected reading on pH-meter. Compounds were initially tested for binding with 0.5 μM antibody. Interesting ligands were further tested with protein concentrations of 100 or 20 nM. A one-dimensional ^1H-spectrum was acquired first as reference spectrum and subsequently a saturation transfer difference (STD) spectrum was acquired. Each analysis took 60 minutes on the spectrometer.

SMILES	NMR signal, conc 1	NMR signal, conc 2	also measured
O=C(Cc1ncon1)Nc1ccc(F)cc1F [AB_0000690, n1-(2,4-difluorophenyl)-2-(1,2,4-oxadiazol-3-yl)acetamide]	0	–	–
Sc1nnc(-c2csc(-c3ccccc3)n2)o1 [AB_0000760, 5-(2-phenyl-1,3-thiazol-4-yl)-1,3,4-oxadiazol-2-ylhydrosulfide]	1	0	–
CC1(C)CC(=O)c2sc(NC(=O)c3cccnc3)nc2C1 [AB_0000750, n-(5,5-dimethyl-7-oxo-4,5,6,7-tetrahydro-benzothiazol-2-yl)-nicotinamide]	0	–	–
O=C(c1ccc2ccccc2c1)n1ccnc1 [AB_0000900, 1-(2-naphthoyl)imidazole]	0	–	–
O=C1C(=Cc2ccccc2)C(=O)c2ccccc21 [AB_0000730, 2-benzylidene-1,3-indandione]	0	–	–
O=C1c2ccncc2C(=O)N1c1ccc(Cl)cc1 [AB_0000610, 2-(4-chlorophenyl)-2,3-dihydro-1h-pyrrolo[3,4-c]pyridine-1,3-dione]	0	–	–
O=C(Cc1ncon1)Nc1ccc(F)c(F)c1F [AB_0000630, n1-(2,3,4-trifluorophenyl)-2-(1,2,4-oxadiazol-3-yl)acetamide]	0	–	–
COC(=O)CCCNC(=O)N(C)c1ccc(Cl)c(Cl)c1 [AB_0001257, 4-[3-(3,4-Dichloro-phenyl)-3-methyl-ureido]-butyric acid methyl ester]	–	–	NMR signal, Conc 2 (directed library): 0; NMR signal, Conc 1 (directed library): 2
O=C1C(=O)N(c2ccccc2)C(=O)N1c1ccccc1 [AB_0000540, 1,3-diphenylparabanic acid]	0	–	–
CC1=NN(c2cccc(Cl)c2)C(=O)C1 [AB_0000530, 1-(3-chlorophenyl)-3-methyl-2-pyrazolin-5-one]	0	–	–
O=C(CC1OC(=O)c2ccccc21)c1ccccn1 (stereo not drawn) [AB_0000790, 3-[2-oxo-2-(2-pyridyl)ethyl]-1,3-dihydroisobenzofuran-1-one]	0	–	–
O=C(c1ccccn1)C(O)c1ccccn1 (stereo not drawn) [AB_0000510, alpha-pyridoin]	0	–	–
CCOC(=O)c1c[nH]c2ccccc2c1=O [AB_0001100, ethyl 4-oxo-1,4-dihydroquinoline-3-carboxylate]	0	–	–
COC(=O)CCCN(C)C(=O)N(C)c1ccc(Cl)c(Cl)c1 [AB_0001255, 4-[3-(3,4-Dichloro-phenyl)-1,3-dimethyl-ureido]-butyric acid methyl ester]	–	–	NMR signal, Conc 2 (directed library): 2; NMR signal, Conc 1 (directed library): 2; interaction with the antibody in NMR screening of directed library: strongest binding
O=C1C=C(Cl)C(=O)N1c1ccccc1 [AB_0000930, 3-chloro-1-phenyl-pyrrole-2,5-dione]	0	–	–
COC(=O)CCCN(C)C(=O)N(C)c1ccc(F)c(F)c1 [AB_0001258, 4-[3-(3,4-Difluoro-phenyl)-1,3-dimethyl-ureido]-butyric acid methyl ester]	–	–	NMR signal, Conc 2 (directed library): 1; NMR signal, Conc 1 (directed library): 1
COC(=O)CCCN(C)C(=O)N(C)c1ccc(OC)c(Cl)c1 [AB_0001253, 4-[3-(3-Chloro-4-methoxy-phenyl)-1,3-dimethyl-ureido]-butyric acid methyl ester]	–	–	NMR signal, Conc 2 (directed library): 1; NMR signal, Conc 1 (directed library): 2
O=C(Nc1ccc(F)cc1)Oc1noc(-c2ccccc2)n1 [AB_0000740, 5-phenyl-1,2,4-oxadiazol-3-yl n-(4-fluorophenyl)carbamate]	0	–	–
c1ccc(-c2nnc(-c3ccccn3)nn2)nc1 [AB_0000700, 3,6-di-2-pyridyl-1,2,4,5-tetrazine]	0	–	–
CCCCc1c(O)nc2ccccn2c1=O [AB_0000990, 3-butyl-2-hydroxy-4h-pyrido[1,2-a]pyrimidin-4-one]	0	–	–
COC(=O)CCCN(C)C(=O)N(C)c1ccc(OC)c(F)c1 [AB_0001252, 4-[3-(3-Fluoro-4-methoxy-phenyl)-1,3-dimethyl-ureido]-butyric acid methyl ester]	–	–	NMR signal, Conc 2 (directed library): 1; NMR signal, Conc 1 (directed library): 1
COC(=O)[C@H]1CCCN1C(=O)N(C)c1ccc(Cl)c(Cl)c1 (single isomer, unassigned) [AB_0003290, 1-[(3,4-Dichloro-phenyl)-methyl-carbamoyl]-pyrrolidine-2-carboxylic acid methyl ester (R-isomer)]	–	–	NMR signal, Conc 2 (directed library): 2; NMR signal, Conc 1 (directed library): 2
COC(=O)CCCN(C)C(=O)N(C)c1ccccc1 [AB_0001251, 4-(1,3-Dimethyl-3-phenyl-ureido)-butyric acid methyl ester]	–	–	NMR signal, Conc 2 (directed library): 0; NMR signal, Conc 1 (directed library): 0; interaction with the antibody in NMR screening of directed library: negative result
COC(=O)NC(=O)c1nc(-c2ccccc2)c(C)o1 [AB_0000670, methyl n-[(5-methyl-4-phenyl-1,3-oxazol-2-yl)carbonyl]carbamate]	2	0	–

Continued, in another order:

NMR signal, conc 1	NMR signal, conc 2	SMILES	also measured
0	–	O=C(O)c1ccnn(-c2ccccc2)c1=O [AB_0001180, 3-oxo-2-phenyl-2,3-dihydro-4-pyridazinecarboxylic acid]	–
0	–	CSCCNC(=O)c1nc2ccccc2c(=O)n1N [AB_0001130, 3-amino-n-[2-(methylthio)ethyl]-4-oxo-3,4-dihydroquinazoline-2-carboxamide]	–
1	0	O=C(c1cccs1)c1cnc2ccccn2c1=O [AB_0001300, 3-(2-thienylcarbonyl)-4h-pyrido[1,2-a]pyrimidin-4-one]	–
2	0	FC(F)(F)c1cccc(-n2ccnc2)c1 [AB_0001220, 1-(3-trifluoromethylphenyl)imidazole]	–
2	0	Clc1ccc(COn2ccnc2)cc1Cl [AB_0001150, 1-[(3,4-dichlorobenzyl)oxy]-1h-imidazole]	–
1	0	COC(=O)c1ccc2ccccc2c1O [AB_0001200, methyl 1-hydroxy-2-naphthoate]	–
0	–	OC(CNCc1ccc(Cl)cc1Cl)C(F)(F)F (stereo not drawn) [AB_0001170, 3-[(2,4-dichlorobenzyl)amino]-1,1,1-trifluoro-2-propanol]	–
1	0	O=Cc1cccc(C(F)(F)F)c1Cl [AB_0001030, 2-chloro-3-(trifluoromethyl)benzaldehyde]	–
1	0	O=C1C=CC(=O)N1c1cccc(Cl)c1 [AB_0001090, n-(3-chlorophenyl)-maleimide]	–
1	0	Fc1cc(F)cc(Cc2nc(-c3cccs3)no2)c1 [AB_0001020, 5-(3,5-difluorobenzyl)-3-(2-thienyl)-1,2,4-oxadiazole]	–
0	–	O=C(COc1ccc2ccccc2c1)ON1C(=O)CCC1=O [AB_0001230, (2-naphthoxy)acetic acid, n-hydroxysuccinimide ester]	–
1	0	OC(CNCc1ccccc1)C(F)(F)F (stereo not drawn) [AB_0001000, 3-(benzylamino)-1,1,1-trifluoro-2-propanol]	–
2	0	N=c1sccn1CC(=O)c1ccc2ccccc2c1 [AB_0001060, 2-(2-imino-thiazol-3-yl)-1-naphthalen-2-yl-ethanone]	–
2	0	c1ccc(CCn2cc(-c3ccncc3)cn2)cc1 [AB_0001190, 4-[1-(2-phenylethyl)-(1h)-pyrazol-4-yl]pyridine]	–
1	0	OC(CNCc1ccc(Cl)cc1)CSc1ccccc1 (stereo not drawn) [AB_0001270, 1-[(4-chlorobenzyl)amino]-3-(phenylthio)propan-2-ol]	–
1	1	CCn1ccnc1CC1COc2ccccc2O1 (stereo not drawn) [AB_0001070, imiloxan hydrochloride]	–
